Data set [1] concerns the target DCN1-UBC12 interaction (Homo sapiens (Human), UniProt Q96GG9). In words: biochemical. In kind it is binding. The note with it: for inhibition of the DCN1-UBC12NAc interaction: TR-FRET assay. For orientation: In TR-FRET formats the signal depends on donor and acceptor labels being close together.
The subject of data set [2] is U-2 OS cells. In words: Electron microscopy of compound treated cells. In kind it is cell-based.
The target of data set [3] is Dcn1P-mediated co-E3 activity (Homo sapiens (Human), UniProt Q96GG9). As to the kind of experiment: Pulse-chase neddylation assay (NEDD8 transfer from UBC12 to CUL2CTD). In kind it is biochemical. The following applies: for inhibition of labeled NEDD8 transfer from UBC12 to CUL2CTD-RBX2: pulse-chase neddylation assay.
Protocol: Compound inhibition of Dcn1^P-mediated co-E3 activity was monitored using pulse-chase assays to exclusively monitor effects of Nedd8 transfer to Cul2 without sensing earlier steps in the reaction. […] Load reactions were quenched by the addition of EDTA to 50 mM and incubated on ice for 5 minutes. Chase reactions involved dilution of the UBC12˜[^FAM]-Nedd8 thioester conjugate to 40 nM in 50 mM Tris, 50 mM NaCl, 50 mM EDTA, 0.5 mg/mL BSA, pH 6.8. […] Fluorescent gels were visualized by scanning on a Typhoon imager (GE).
Data set [4] deals with endosome maturation. As to the kind of experiment: Endosome maturation (LAMP1 positive vesicles) imaging. In kind it is cell-based.
Data set [5] deals with HCC95 cancer cells. In words: Cullin neddylation in cancer cells (cell lysis and western blot). In kind it is cell-based. (In western blotting, separated proteins are transferred to a membrane and probed.)
Protocol: Cell pellets harvested from a 6 well dish were resuspended in 30-40 μL of lysis buffer (50 mM Tris, 150 mM NaCl, 0.5% NP-40, 0.1% SDS, 6.5 M Urea, 2 mM 1,10-orthophenanthroline, 1× Halt Protease and Phosphatase inhibitor cocktail (ThermoFisher), 0.25 kU Universal Nuclease (ThermoFisher), pH 7.5). Cell pellet suspensions were incubated on ice for 25 minutes with occasional mixing by pipetting up and down. Lysates were cleared by centrifugation at 13 K rpm for 20 minutes and the supernatant was removed as total cell lysate sample. Protein concentration of the cell lysate was determined by BCA assay (Pierce) using BSA as a control. Cell lysates were diluted into 2×SDS-PAGE sample buffer such that 25 μg of total protein was loaded per well. […] Primary antibodies were prepared in blocking buffer and incubated with membranes overnight at 4° C. with rocking. Membranes were extensively washed in 1×TBS, 0.1% Tween-20. Secondary antibodies were prepared in blocking buffer according to the manufactures recommendations and incubated with membranes for 1 hour at room temperature. After extensive washing the membranes were developed with SuperSignal West Pico Chemiluminescent substrate (ThermoFisher) and developed by film exposure (HyBlot CL, Denville scientific).
The test system of data set [6] is HCC95 cells. In words: Soft agar anchorage independent growth assay. In kind it is cell-based. The note with it: 10 μM.
The nature of data set [7]: physchem. The note with it: aqueous buffer, kinetic from dmso stock.
Protocol: Solubility assays were carried out on a Biomek FX lab automation workstation (Beckman Coulter, Inc., Fullerton, Calif.) using μSOL Evolution software (pION Inc., Woburn, Mass.). […] Compound stock (10 mM in DMSO, 10 μL) was added to 1-propanol (190 μL) to make a reference stock plate. […] Test compound stock (10 mM, 6 μL) was added to buffer (594 μL) in a 96-well storage plate and mixed. […] The suspension was then filtered through a 96-well filter plate (pION Inc., Woburn, Mass.). […] Calculation was carried out by μSOL Evolution software based on the AUC (area under curve) of UV spectrum of the sample plate and the reference plate. All compounds were tested in triplicate.
The format of data set [8] is in vitro ADME. The note with it: Table 10. As to the method: Test compound stock (10 mM in DMSO, 3 μL) was mixed with citrate phosphate buffered saline (597 μL) to make diluted test compound. Diluted test compound (150 μL) was transferred to a UV plate (pION Inc., Woburn, Mass.) and the UV spectrum (250 nm-500 nm) was read as the reference plate. Each well of the donor plate in a PAMPA sandwich plate (pION Inc., Woburn, Mass.) contained a filter that was painted on one side with 4 μL GIT lipid (pION Inc., Woburn, Mass.) to form a membrane. Each well in the acceptor plate in a PAMPA sandwich, preloaded with magnetic stir bars, was filled with acceptor solution buffer (200 pION Inc., Woburn, Mass.). The donor plate was filled with diluted test compound (180 The PAMPA sandwich was assembled by placing the donor plate over the acceptor plate. The combined PAMPA plate was placed on a pIon Gut-Box™, a stirring apparatus that allows equilibrium to be reached quicker. Aqueous Boundary Layer of the pIon Gut-Box™ was set to 40 μm and the compounds stirred for 30 minutes. The UV spectrum (250 nm-500 nm) of the donor and the acceptor were read. The permeability coefficient was calculated using PAMPA evolution 96 command software (pION Inc., Woburn, Mass.) based on the whole spectrum measured from the reference plate, the donor plate, and the acceptor plate. All compounds were tested in triplicates.

For data set [9] the following is noted: preliminary experiment.
A short description of data set [10]: Seven day spermatogenesis study. The format is in vivo. The following applies: for Weight: oral gavage, B.I.D.; for Motility / Sperm Count / Viability (%): oral gavage B.I.D.
A short description of data set [11]: in vivo. The following applies: for concentration at 3 day / concentration at 7 day / concentration at 24.4 h / concentration at […] / concentration at 1 h: male; for concentration at 3 day: Day 3; for concentration at 7 day: Day 7.
Setting [12] is: Table 10, R101 series, read-out: IC50 (μM) (TR-FRET).
[13] abbreviates: Plasma Concentration (μM), 50 mg/kg.
Setting [14] is: Plasma Concentration (μM), 100 mg/kg.
[15] abbreviates: Plasma Concentration, Repeat Dose (0 and 7.5 hr).
Where [16] appears, read: Plasma Concentration, Single Dose (0 hr).
The mark [17] stands for this setting: Testis Concentration (μM), 50 mg/kg.
Setting [18] is: Testis Concentration (μM), 100 mg/kg.
Setting [19] is: Testis Concentration, Repeat Dose (0 and 7.5 hr).
Setting [20] is: Testis Concentration, Single Dose (0 hr).

In brackets after ≈: the same amount, converted by molar mass. Entries after “also recorded” stand apart in the source; their conditions may differ. Read-outs that look alike come from different tables or passages of the source.

DCN1-UBC12 interaction, sequence (Q96GG9 60-248 limits assumed): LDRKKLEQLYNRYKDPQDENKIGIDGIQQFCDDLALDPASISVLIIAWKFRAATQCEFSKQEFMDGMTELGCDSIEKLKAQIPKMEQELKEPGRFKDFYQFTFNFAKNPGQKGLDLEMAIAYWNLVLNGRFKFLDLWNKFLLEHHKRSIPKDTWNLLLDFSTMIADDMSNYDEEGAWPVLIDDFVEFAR
Dcn1P-mediated co-E3 activity, sequence (Q96GG9 whole entry, looked up): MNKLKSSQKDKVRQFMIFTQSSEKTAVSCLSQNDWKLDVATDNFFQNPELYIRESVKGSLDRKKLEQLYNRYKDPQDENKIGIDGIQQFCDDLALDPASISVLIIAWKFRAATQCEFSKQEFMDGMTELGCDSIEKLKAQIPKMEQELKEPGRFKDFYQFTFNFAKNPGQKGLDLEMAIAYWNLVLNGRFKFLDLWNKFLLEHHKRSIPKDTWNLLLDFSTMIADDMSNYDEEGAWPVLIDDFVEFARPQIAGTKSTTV
Dcn1P-mediated co-E3 activity, sequence (Q13617 whole entry partner, looked up): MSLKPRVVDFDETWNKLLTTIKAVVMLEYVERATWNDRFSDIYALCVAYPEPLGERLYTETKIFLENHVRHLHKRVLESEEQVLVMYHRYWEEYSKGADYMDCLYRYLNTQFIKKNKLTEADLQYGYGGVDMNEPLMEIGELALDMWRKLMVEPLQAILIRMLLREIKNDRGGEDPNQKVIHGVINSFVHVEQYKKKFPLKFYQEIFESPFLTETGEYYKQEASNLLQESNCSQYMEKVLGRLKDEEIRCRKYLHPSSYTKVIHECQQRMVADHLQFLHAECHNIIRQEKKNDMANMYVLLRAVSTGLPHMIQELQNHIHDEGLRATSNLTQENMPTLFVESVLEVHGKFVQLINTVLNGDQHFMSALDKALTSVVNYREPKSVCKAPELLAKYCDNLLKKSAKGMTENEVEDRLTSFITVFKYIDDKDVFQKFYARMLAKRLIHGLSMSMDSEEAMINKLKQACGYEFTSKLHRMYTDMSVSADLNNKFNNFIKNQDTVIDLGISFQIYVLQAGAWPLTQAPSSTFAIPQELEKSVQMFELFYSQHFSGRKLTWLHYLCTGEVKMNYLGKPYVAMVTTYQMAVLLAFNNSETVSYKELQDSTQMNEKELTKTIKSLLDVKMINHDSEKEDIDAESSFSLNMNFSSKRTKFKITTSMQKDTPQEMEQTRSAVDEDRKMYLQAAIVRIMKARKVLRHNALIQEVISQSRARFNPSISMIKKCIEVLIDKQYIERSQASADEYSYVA
Dcn1P-mediated co-E3 activity, sequence (Q9UBF6 whole entry partner, looked up): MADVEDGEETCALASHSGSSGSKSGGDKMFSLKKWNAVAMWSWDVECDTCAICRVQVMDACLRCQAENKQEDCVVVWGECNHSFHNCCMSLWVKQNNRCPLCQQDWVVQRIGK

By IC50 is commonly meant the midpoint of a concentration-inhibition curve. On to `C=CC(=O)NCc1cccc(CN(C(=O)Nc2cccc(C(F)(F)F)c2)C2CCN(C(C)CCC)CC2)c1` (stereo not drawn) [A3], for which the 50% inhibitory concentration (IC50) in data set [1] (read-out: TR-FRET IC50) came out at 0.018 µM. Besides, the “vacuolar structures by electron microscopy” value (“vacuolar structures” for short) in data set [2] is listed as “presence of large vacuolar structures”.

Take `O=C(Nc1cccc(C(F)(F)F)c1)NC1CCN(Cc2ccccc2)CC1` [B7, 1-(1-Benzylpiperidin-4-yl)-3-(3-(Trifluoromethyl)Phenyl)Urea]: the “inhibition of the DCN1-UBC12NAc interaction” value in data set [1] is given as “dose-dependent inhibition”. In data set [3] (dependence on presence of DCN1), the “inhibition of DCN1 dependent neddylation” value is “specifically inhibits DCN1 dependent nedylation”. Further, the “inhibition of labeled NEDD8 transfer from UBC12 to CUL2CTD-RBX2” value (from here on “inhibition of labeled NEDD8 transfer”) in data set [3] is “dose-dependent inhibition”.

With `CCCCN1CCC(N(Cc2ccc3c(c2)OCO3)C(=O)Nc2cc(F)cc(C(F)(F)F)c2)CC1` [A83], the IC50 in [1] (read-out: TR-FRET IC50) amounted to 0.901 µM. Moreover, the “effect on endosome maturation” value in data set [4] (3 μM on cells) was “affect endosome maturation”.

For `Cc1cccc(C(=O)NC2C(=O)Nc3c(c(C)nn3-c3ccccc3)C2c2ccc(F)cc2)c1` (stereo not drawn) [F1], the “inhibition of labeled NEDD8 transfer” value in data set [3] is “dose-dependent inhibition”.

Turning to `C=CC(=O)Nc1cccc(CN(C(=O)Nc2cccc(C(F)(F)F)c2)C2CCN(C(C)CCC)CC2)c1` (stereo not drawn) [A18], the “levels of neddylated Cullins / cullin neddylation” value in data set [5] was “reduce the levels of neddylated Cullins; also recorded: selectively inhibit cullin neddylation”. Besides, the anchorage independent growth result in data set [6] was “inhibit the anchorage independent growth of HCC95 cells”. Moreover, in data set [1] (read-out: TR-FRET IC50), the IC50 came to 0.111 µM.

`CCCN1CCN(C(=O)c2cnn(-c3nccc(-c4cccs4)n3)c2C(C)C)CC1` [E1, (5-Isopropyl-1-(4-(Thiophen-2-yl)Pyrimidin-2-yl)-1H-Pyrazol-4-yl)(4-Propylpiperazin-1-yl)Methanone]: in [1], the “inhibition of the DCN1-UBC12NAc interaction” value was “dose-dependent inhibition”. For the same compound, in [1] (Table 6, commercial compounds, read-out: TR-FRET IC50), the IC50 stood at 1.07 µM. Besides, in data set [3], the “inhibition of labeled NEDD8 transfer” value is reported as “dose-dependent inhibition”.

A word on the solubility (kinetic): it is solubility judged after dilution from a stock solution rather than from solid. Take `O=C(Nc1cccc(C(F)(F)F)c1)N(Cc1ccccc1)C1CCN(Cc2ccc3c(c2)OCO3)CC1` [compound 26]: in [1] (setting [12]), the IC50 worked out at 7 µM. In addition, the solubility (kinetic) in [7] was below 0.1 µM. In data set [8], the “Pampa (×10^−6 cm/s)” value is >2200 ×10^−6 cm/s.

On to `CCCC(C)N1CCC(N(Cc2ccccc2)C(=O)Nc2cccc(C(F)(F)F)c2)CC1` (stereo not drawn) [A15, 1-Benzyl-1-(1-(Pentan-2-yl)Piperidin-4-yl)-3-(3-(Trifluoromethyl)Phenyl)Urea], for which the “vacuolar structures” value in data set [2] is listed as “presence of large vacuolar structures”. In addition, in data set [4] (10 μM on cells), the “effect on endosome maturation” value is “affect endosome maturation”.

With `O=C(Nc1cccc(C(F)(F)F)c1)N(Cc1ccccc1)C1CCN(Cc2ccc3c(c2)OCCO3)CC1` [compound 27], in [1] (setting [12]), the IC50 was determined as 7.3 µM. This compound also registered a kinetic solubility in [7] of 1 ± 1.3 µM (≈ 0.526 µg/mL). In addition, the “Pampa (×10^−6 cm/s)” value in data set [8] is listed as >2200 ×10^−6 cm/s.

The term half-life denotes the time needed for the level to fall by half in the phase considered. Higher therefore signals slow decline. `CCCCN1CCC(N(Cc2ccccc2)C(=O)Nc2ccc(Cl)c(Cl)c2)CC1` [A7]: the “levels of neddylated Cullins / cullin neddylation” value in data set [5] is “reduce the levels of neddylated Cullins; also recorded: selectively inhibit cullin neddylation”. For the same compound, the anchorage independent growth result in data set [6] is recorded as “inhibit the anchorage independent growth of HCC95 cells”. The maximum serum concentration in data set [9] lay in the range of 1.5 to 3 µM. Also, the figures for the Weight in data set [10] (50 mpk) and in data set [10] (100 mpk) were 146.3 ± 27.7 mg and 150.1 ± 18.9 mg, respectively. Also, the Motility entry in [10] (animal 50 mpk-1) is recorded as “Stationary”; in data set [10] (animal 50 mpk-2), “Stationary”; in data set [10] (animal 50 mpk-3), “Good, erratic”; in [10] (animal 100 mpk-1), “No movement”; in [10] (animal 100 mpk-2) it was “Erratic”; in [10] (animal 100 mpk-3), “Limited”. In addition, the “Sperm Count” value in data set [10] (animal 50 mpk-1) was “Low”; in data set [10] (animal 50 mpk-2) it was “Low”; in data set [10] (animal 50 mpk-3), “Normal”; in data set [10] (animal 100 mpk-1) it was “Low”; in data set [10] (animal 100 mpk-2), “Low”; in [10] (animal 100 mpk-3) it was “Low”. For the same compound, the “Viability (%)” value in [10] (animal 50 mpk-1) is on record as below 20%; in [10] (animal 50 mpk-2) it was 0%; in data set [10] (animal 50 mpk-3), above 50%; in [10] (animal 100 mpk-1) it was below 10%; in [10] (animal 100 mpk-2), below 5%; in data set [10] (animal 100 mpk-3), below 10%. Also, the half-life in data set [11] was 4 to 5 h. The concentration at 3 day in data set [11] (setting [13]) came out at 2.7 ± 2.4 µM; in data set [11] (setting [14]), 2.4 ± 1.2 µM; in [11] (setting [17]), 11.6 ± 3.4 µM; in [11] (setting [18]), 25.9 ± 11.1 µM. Moreover, the concentration at 7 day in [11] (setting [13]) worked out at 1.7 ± 1.2 µM; in data set [11] (setting [14]), 1.4 ± 0.6 µM; in data set [11] (setting [17]), 8.25 ± 4.1 µM; in data set [11] (setting [18]), 31.2 ± 12.8 µM. Besides, the concentration at 24.4 h in data set [11] (setting [15]) worked out at 0.62 ± 0.16 µM; in data set [11] (setting [16]), 0.47 ± 0.32 µM; in data set [11] (setting [19]), 6.2 ± 5.3 µM; in data set [11] (setting [20]) it was 4.4 ± 3.3 µM. Further, the concentration at […] in [11] (setting [15]) is 4.8 ± 1.3 µM; in data set [11] (setting [19]), 16.7 ± 3.1 µM. Besides, the concentration at 1 h is 3.7 ± 0.95 µM in data set [11] (setting [16]) and 2.1 ± 0.74 µM in data set [11] (setting [20]). Also, the “vacuolar structures” value in [2] is “presence of large vacuolar structures”.

For the origin of these results see patent publication US11116757B2 (priority 2015, dated 2021).
